Assay results reported in US8691768B2, “Methods of determining delta opioid receptor subtypes” (The Regents of the University of California, priority 2008, dated 2014).

Experiments:
[1] = test system: Lewis rats, ventral tegmental area (VTA); experiment: Ethanol self-administration (two-bottle continuous access) after microinjection into the VTA; format: in vivo
Experimental: Male Lewis rats (Harlan Laboratories, Indianapolis, Ind.) weighing between 275-300 g were individually housed in a temperature controlled colony room (21° C.) maintained on a reversed light/dark cycle 12L:12D cycle (lights off at 10 A.M., lights on at 10 P.M.). All experiments were performed during the dark portion of the cycle. Food and water was provided ad libitum.
Ethanol was administered via a two-bottle continuous access, free-choice paradigm in which one bottle contained 10% ETOH (v/v) and the other bottle contained water. Sucrose was never added to the ethanol solution. The amount of ETOH and water consumed was measured at the same time daily (10 A.M.). […] Animals were weighed daily. Bottles were identical and their positions were counterbalanced and rotated daily. Change in drinking was calculated by subtracting the amount of drinking (mg/kg) on the day following treatment from the amount of drinking (mg/kg) on the day prior to treatment.
Animals were anesthetized and maintained on isoflurane (0.5 l/min) as needed for the duration of surgery. Animals were placed in a stereotaxic frame and were implanted with bilateral 26-gauge stainless steel chronic guide cannulas (Plastincs One, Roanoke, Va.) into the VTA (AP, −5.8; ML, ±0.5; DV, −7.0) based on the atlas of Paxinos and Watson (1997, The rat brain in sterotaxic coordinates, compact, Ed 3. San Diego: Academic). Cannulas were secured to the skull with dental cement. At the end of the surgical procedure, animals were treated with penicillin and topical antibiotics. A stainless steel dummy cannula (Plastics One) was inserted into each guide cannula and remained in place when the guide cannulas were not in use. Animals were allowed a 1 week recovery period before behavioral testing.
Each injection was made using a 1 μl syringe (Hamilton, Reno, Nev.) attached to 20 cm of PE 50 tubing connected to a 33-gauge injection cannula (Plastics One). Microinjections of 0.5 μl volumes were given at a rate of 0.5 μl/min using a syringe pump (kd Scientific, Hollister, Mass.) into each side of the VTA, except for bicuculline injections, where 0.25 μl was injected per side. Injection cannulas extended 2 mm beyond guide cannulas and were left in place for 1 min following microinjections to minimize the backflow of drug solution. In addition to drug microinjections, physiological saline microinjections were made in every rat to measure the effect of the injection manipulation alone on drinking Drug injections were randomized and counterbalanced. Change in drinking due to drug microinjections was calculated by comparing both the previous day's consumption (“baseline”) and to saline injection. At the conclusion of the experiment, animals were anesthetized with pentobarbital and perfused intracardially through the ascending aorta with 0.1 M phosphate buffered saline followed by 10% formalin. Brains were sectioned coronally at 50 μm, mounted and stained with cresyl violet. Only animals with confirmed injection sites within the VTA were included. No behavioral differences were observed between animals with anterior compared with posterior cannula placements.
For behavioral experiments, DPDPE (10mM; Sigma, St. Louis, Mo.), TIPP-ψ (5 μM; NIDA, Bethesda, Md.), Bicuculline (1 mM; Sigma), DAMGO (0.2 mM; Sigma), and CTOP (10 mM; Tocris, Ellisville, Mo.) were prepared in physiological saline for microinjection into the VTA. For electrophysiology, all drugs were applied by bath perfusion. Stock solutions were made and diluted in artificial CSF immediately before application. All chemicals were obtained from Sigma or Tocris except TIPP-ψ, which was acquired from NIDA.
Results are presented as mean±SEM where appropriate. For behavioral data, drinking was analyzed using 24 h time points. Raw drinking data were used for paired Student's t test comparisons probing drug effects on drinking compared with baseline or saline injections, a more conservative comparison than analyzing normalized data. […]

[2] = test system: GABAA IPSCs in VTA neurons; experiment: Slice electrophysiology, whole-cell patch-clamp of GABAA IPSCs in VTA neurons; format: cell-based, Lewis rats
Lewis rats = experiment: Cocaine self administration after VTA microinjection; format: in vivo; conditions: 10 mM into VTA, compared to saline
Experimental: Lewis rats (Charles River, Mass.) weighing 275-350 g at the beginning of behavioral testing are housed and treated as previously described. Prior to cocaine self administration, rats are anesthetized with a ketamine-xylazine-acepromazine mixture and implanted with a chronic jugular catheter using methods previously described (Caine & Koob, 1993). Following surgery, rats receive daily administration of the antibiotic ticarcillin (20 mg/day at 100 mg/ml; GlaxoSmithKline, Research Triangle Park, NC). Catheter patency is tested by infusion of the fast-acting barbiturate Brevital (methohexital sodium; 1 mg/0.1 ml; Lilly, Indianapolis, Ind.). Self-administration training is conducted in operant-conditioning chambers enclosed within sound-attenuating cabinets (MED Associates, St. Albans, Vt.). […] Presses on the active lever result in either a 120 microL infusion of cocaine over a 4-s period via a Razel pump (Razel Scientific Instruments, Fairfax, Vt.) or delivery of a 45-mg food pellet (Bio-Serv, Frenchtown, N.J.). […] Presses on the active lever result in a 20-s time-out, signaled by illumination of the stimulus light and retraction of the active lever. […] Following training, rats are microinjected with either 10 mM DPDPE or saline directly into the VTA prior to cocaine self-administration and active lever presses are recorded.

[3] = 1 μM, VTA neurons from drinking animals

For “(2-D-penicillamine, 5-D-penicillamine)-enkephalin [DPDPE]”, the “drinking (EtOH)” value ([1]; 10 mM into VTA, compared with control saline microinjections in the same rats) was “also evident”, the “drinking (EtOH)” value ([1]; 10 mM into VTA, high drinkers) was “only at trend level” and the “drinking (EtOH)” value ([1]; 10 mM into VTA, low drinkers) was “particularly prominent”. The “relation between baseline EtOH consumption and % baseline drinking following administration” value ([1]; 10 mM into VTA, n=15) was “inverse correlation”, the “drinking (EtOH)” value ([1]; 10 mM microinjected into VTA, all animals, compared with the day before treatment) was “decreased drinking” and the “relation between DPDPE induced inhibition of evoked and spontaneous IPSCs and amount of EtOH consumed” value [2] was “inverse correlation”. The “evoked IPSCs” value [2, 3] was “significantly inhibited”, the “spontaneous IPSCs” value [2, 3] was “significantly inhibited” and the “GABA release onto VTA neurons” value ([2]; abstinent animals, 3 and 7 days off bottles) was “maintained its ability to inhibit GABA release”. For the same substance, the “GABAA IPSCs” value ([2]; age-matched, ethanol-naive, control animals) was “no effect”, the saturating dose ([2]; dose-response in the animal groups, in presence of 1 μM CTAP) was 1 µM and the “GABA release in the VTA” value ([2]; low drinkers) was “Decreases GABA Release”. The “cocaine self administration (active lever presses)” value (Lewis rats) was “decrease cocaine self administration”.
